Experimental data reported in ChEMBL document CHEMBL1201862, “PubChem BioAssay data set” (2004).
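1) Cells in 96-well plates. 2) Compound, 48 h, 5 concentrations. 3) Linear interpolation between surrounding doses. 4) Unreached endpoint = highest concentration. Here, GI50 denotes the concentration required for 50% inhibition of growth.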 Calls of active or inactive are those of the source. Rule as the data show it: active = GI50 up to about 1.1 µM and inactive = higher.

Key:
Test in all cases: DTP human tumour cell line panel, 48 h
[1] = test system: NCI-H460
[2] = test system: OVCAR-5
[3] = test system: NCI-H522
[4] = test system: HCC 2998
[5] = test system: HT-29
[6] = test system: OVCAR-4
[7] = test system: 786-0
[8] = test system: LOX IMVI
[9] = test system: A549
[10] = test system: CAKI-1
[11] = test system: SK-MEL-5
[12] = test system: M14
[13] = test system: TK-10
[14] = test system: CCRF-CEM
[15] = test system: KM12
[16] = test system: SF-539
[17] = test system: NCI-H226
[18] = test system: SF-295
[19] = test system: SK-MEL-2
[20] = test system: COLO 205
[21] = test system: RXF 393
[22] = test system: BT-549
[23] = test system: HCT-15
[24] = test system: HCT-116
[25] = test system: NCI/ADR-RES
[26] = test system: SN12C
[27] = test system: U-251
[28] = test system: OVCAR-8
[29] = test system: MDA-MB-231
[30] = test system: Malme-3M
[31] = test system: HL-60
[32] = test system: RPMI-8226
[33] = test system: EKVX
[34] = test system: T47D
[35] = test system: UACC-62
[36] = test system: SNB-75
[37] = test system: MDA-MB-435
[38] = test system: SNB-19
[39] = test system: SK-MEL-28
[40] = test system: Hs-578T
[41] = test system: NCI-H23
[42] = test system: ACHN
[43] = test system: A498
[44] = test system: SF-268
[45] = test system: OVCAR-3
[46] = test system: MDA-N
[47] = test system: UACC-257
[48] = test system: SK-OV-3
[49] = test system: PC-3
[50] = test system: SW-620
[51] = test system: DU-145
[52] = test system: IGROV-1
[53] = test system: HOP-62
[54] = test system: HOP-92
[55] = test system: SR
[56] = test system: UO-31
[57] = test system: MCF7
[58] = test system: MOLT-4
[59] = test system: K562

O=C1C(Cl)=C(N[C@@H](Cc2ccccc2)C(=O)OCc2ccccc2)C(=O)c2c(O)ccc(O)c21
GI50 [1]: 4.59 µM (inactive) | GI50 [2]: 6.18 µM (inactive) | GI50 [3]: 6.41 µM (inactive) | GI50 [4]: > 10 µM (inactive) | GI50 [5]: 4 µM (inactive) | GI50 [6]: 3.31 µM (inactive) | GI50 [7]: 3.11 µM (inactive) | GI50 [8]: 2.99 µM (inactive) | GI50 [9]: 3.47 µM (inactive) | GI50 [10]: > 10 µM (inactive) | GI50 [11]: 3.24 µM (inactive) | GI50 [12]: 3.8 µM (inactive) | GI50 [13]: > 10 µM (inactive) | GI50 [14]: 0.485 µM (active) | GI50 [15]: 4.45 µM (inactive) | GI50 [16]: 2.42 µM (inactive) | GI50 [17]: 5.3 µM (inactive) | GI50 [18]: 5.66 µM (inactive) | GI50 [19]: 6.7 µM (inactive) | GI50 [20]: 2.28 µM (inactive) | GI50 [21]: 4.92 µM (inactive) | GI50 [22]: > 10 µM (inactive) | GI50 [23]: 1.19 µM | GI50 [24]: 1.65 µM (inactive) | GI50 [25]: 1.88 µM (inactive) | GI50 [26]: 3.93 µM (inactive) | GI50 [27]: 3.01 µM (inactive) | GI50 [28]: 3.73 µM (inactive) | GI50 [29]: 2.55 µM (inactive) | GI50 [30]: 5.35 µM (inactive) | GI50 [31]: 2.07 µM (inactive) | GI50 [32]: > 10 µM (inactive) | GI50 [33]: 7.18 µM (inactive) | GI50 [34]: > 10 µM (inactive) | GI50 [35]: 2.96 µM (inactive) | GI50 [36]: 4.73 µM (inactive) | GI50 [37]: 3.17 µM (inactive) | GI50 [38]: 5.81 µM (inactive) | GI50 [39]: 6.34 µM (inactive) | GI50 [40]: 4.89 µM (inactive) | GI50 [41]: 4.42 µM (inactive) | GI50 [42]: 4.05 µM (inactive) | GI50 [43]: 7.33 µM (inactive) | GI50 [44]: 2.91 µM (inactive) | GI50 [45]: 2.45 µM (inactive) | GI50 [46]: 2.89 µM (inactive) | GI50 [47]: > 10 µM (inactive) | GI50 [48]: > 10 µM (inactive) | GI50 [49]: 3.72 µM (inactive) | GI50 [50]: 5.65 µM (inactive) | GI50 [51]: 4.45 µM (inactive) | GI50 [52]: 4.08 µM (inactive) | GI50 [53]: 3.52 µM (inactive) | GI50 [54]: 6.3 µM (inactive)

Cc1cn(CC2=NCCCN2)c(=O)[nH]c1=O
GI50 [1]: > 100 µM (inactive) | GI50 [2]: > 100 µM (inactive) | GI50 [3]: > 100 µM (inactive) | GI50 [4]: > 100 µM (inactive) | GI50 [5]: > 100 µM (inactive) | GI50 [7]: > 100 µM (inactive) | GI50 [8]: > 100 µM (inactive) | GI50 [9]: > 100 µM (inactive) | GI50 [11]: > 100 µM (inactive) | GI50 [12]: > 100 µM (inactive) | GI50 [13]: > 100 µM (inactive) | GI50 [14]: > 100 µM (inactive) | GI50 [55]: > 100 µM (inactive) | GI50 [17]: > 100 µM (inactive) | GI50 [18]: > 100 µM (inactive) | GI50 [19]: > 100 µM (inactive) | GI50 [20]: > 100 µM (inactive) | GI50 [21]: > 100 µM (inactive) | GI50 [22]: > 100 µM (inactive) | GI50 [23]: > 100 µM | GI50 [24]: > 100 µM (inactive) | GI50 [25]: > 100 µM (inactive) | GI50 [26]: > 100 µM (inactive) | GI50 [56]: > 100 µM (inactive) | GI50 [27]: > 100 µM (inactive) | GI50 [28]: > 100 µM (inactive) | GI50 [29]: > 100 µM (inactive) | GI50 [30]: > 100 µM (inactive) | GI50 [57]: > 100 µM (inactive) | GI50 [32]: > 100 µM (inactive) | GI50 [33]: > 100 µM (inactive) | GI50 [34]: > 100 µM (inactive) | GI50 [35]: > 100 µM (inactive) | GI50 [36]: > 100 µM (inactive) | GI50 [38]: > 100 µM (inactive) | GI50 [39]: > 100 µM (inactive) | GI50 [40]: > 100 µM (inactive) | GI50 [58]: > 100 µM (inactive) | GI50 [41]: > 100 µM (inactive) | GI50 [42]: > 100 µM (inactive) | GI50 [43]: > 100 µM (inactive) | GI50 [44]: > 100 µM (inactive) | GI50 [46]: > 100 µM (inactive) | GI50 [47]: > 100 µM (inactive) | GI50 [48]: > 100 µM (inactive) | GI50 [59]: > 100 µM (inactive) | GI50 [49]: > 100 µM (inactive) | GI50 [50]: > 100 µM (inactive) | GI50 [51]: > 100 µM (inactive) | GI50 [52]: > 100 µM (inactive) | GI50 [53]: > 100 µM (inactive) | GI50 [54]: > 100 µM (inactive)

COC(=O)[C@H](Cc1c[nH]c2ccccc12)NC(=O)c1ccc(CNC(=O)/C(C)=C/c2ccccc2)cc1
GI50 [1]: 27.9 µM (inactive) | GI50 [2]: > 100 µM (inactive) | GI50 [3]: 14.6 µM (inactive) | GI50 [4]: 15.6 µM (inactive) | GI50 [5]: > 100 µM (inactive) | GI50 [6]: 30.3 µM (inactive) | GI50 [7]: > 100 µM (inactive) | GI50 [8]: 44.3 µM (inactive) | GI50 [9]: 75.7 µM (inactive) | GI50 [10]: > 100 µM (inactive) | GI50 [11]: 17.4 µM (inactive) | GI50 [12]: 15.9 µM (inactive) | GI50 [13]: 29.6 µM (inactive) | GI50 [14]: 41 µM (inactive) | GI50 [15]: 87.7 µM (inactive) | GI50 [55]: 28.6 µM (inactive) | GI50 [16]: > 100 µM (inactive) | GI50 [17]: > 100 µM (inactive) | GI50 [18]: 60.1 µM (inactive) | GI50 [19]: 12.4 µM (inactive) | GI50 [20]: 22.8 µM (inactive) | GI50 [21]: < 0.01 µM (active) | GI50 [22]: 28.1 µM (inactive) | GI50 [23]: 48.1 µM | GI50 [24]: 71.4 µM (inactive) | GI50 [25]: 52.8 µM (inactive) | GI50 [26]: > 100 µM (inactive) | GI50 [56]: 63.7 µM (inactive) | GI50 [27]: 80 µM (inactive) | GI50 [28]: 66.7 µM (inactive) | GI50 [29]: 17.8 µM (inactive) | GI50 [30]: 13 µM (inactive) | GI50 [57]: 29.2 µM (inactive) | GI50 [32]: 46 µM (inactive) | GI50 [33]: 57.3 µM (inactive) | GI50 [34]: 3.7 µM (inactive) | GI50 [35]: 20.9 µM (inactive) | GI50 [36]: 0.497 µM (active) | GI50 [37]: 36.4 µM (inactive) | GI50 [38]: > 100 µM (inactive) | GI50 [39]: 18.2 µM (inactive) | GI50 [58]: 21.5 µM (inactive) | GI50 [41]: 25.7 µM (inactive) | GI50 [42]: 52.5 µM (inactive) | GI50 [43]: 22.6 µM (inactive) | GI50 [44]: 97.5 µM (inactive) | GI50 [45]: 28.6 µM (inactive) | GI50 [46]: 19.8 µM (inactive) | GI50 [47]: 18 µM (inactive) | GI50 [48]: > 100 µM (inactive) | GI50 [59]: > 100 µM (inactive) | GI50 [49]: 20.7 µM (inactive) | GI50 [50]: > 100 µM (inactive) | GI50 [51]: 32.5 µM (inactive) | GI50 [52]: 32.1 µM (inactive) | GI50 [53]: 92.5 µM (inactive) | GI50 [54]: 16 µM (inactive)
